Experimental data: patent US6579853B2, “Brain cell or nerve cell-protective agents comprising ginsenoside Rb1” (Japan Science and Technology Corporation, priority 1998, dated 2003)

What was measured:
[1] = test system: SH-SP rats with MCA permanent occlusion; assay: Water maze test (place navigation ability) after MCA permanent occlusion, intravenous infusion; type: in vivo, rat
Description: (§1) First, we examined the actions of intravenous infusion of ginsenoside Rb1. For this purpose, for example, male SH-SP rats weighing 250˜300 g at the age of 12-13 weeks were used. The animals were bred in an air-conditioned room with a 12:12 hour light-dark cycle, and water and feeds were supplied ad libitum. The cortical branch of the left middle cerebral artery (MCA) was coagulated and cut. A single intravenous administration of ginsenoside Rb1 dissolved in physiological saline was conducted immediately after MCA permanent occlusion (6 μg or 60 μg), thereafter continuous intravenous administration of ginsenoside Rb1 was performed for 28 days by using an Alza mini osmotic pump (6 μg/day or 60 μg/day).
After MCA permanent occlusion, according to the conventional method (Zhang B. et al., J. Stroke Cerebrovasc. Dis., 7, 1-9, 1998), water maze tests were performed for 4 days at the 2nd week and the 4th week, respectively, and the place navigation abilities of SH-SP rats were determined.
(§2) Male SH-SP rats at the age of 12-13 weeks, weighing 250-300 g, were used. The animals were bred in a room furnished with 12 hours light and dark cycles and water and feeds were supplied ad libitum. Blood pressure of the animals was 203±6.9 mmHg. The following experiments were conducted in accordance with the Guide for Animal Experimentation at Ehime University School of Medicine. The cortical branch of the left middle cerebral artery (MCA) of SH-SP rats, were coagulated and cut, while their rectal temperature was maintained at 37±0.2° C. under inhalation anesthesia.
Immediately after MCA permanent occlusion, 60 μl of physiological saline containing ginsenoside Rb1 at a concentration of 1 μg/μl or 0.1 μg/μl was injected once into the left femoral vein. […]
After the MCA permanent occlusion according to the conventional method (Zhang B. et al., J. Stroke Cerebrovase. Dis., 7, 1-9, 1998), water maze tests were performed for 4 days at the 2nd week and the 4th week, respectively, and place navigation abilities of SH-SP rats were determined. […]

[2] = test system: SH-SP rats with MCA permanent occlusion; assay: Ratio of cerebrocortical infarction after MCA permanent occlusion, intravenous infusion; type: in vivo, rat
Description: as §1
After the water maze tests at the 4th week, the SH-SP rats were anesthetized with chloral hydrate, and they were perfused and fixed transcardially with 0.1 mole phosphate buffer containing 4% paraformaldehyde. The brains were dissected out and cerebrocortical infarcted areas were photographed. Areas of the left cerebral hemisphere and the left cerebrocortical infarct lesions were measured on the photographs by using an image analysis device. The left cerebrocortical infarcted areas were divided by the left cerebral hemispheric areas to calculate ratios of the cerebrocortical infarction (%).
as §2, with “The cortical branch of the left middle cerebral artery (MCA) of SH-SP rats, were coagulated and cut, while their rectal temperature was maintained at 37±0.2° C. under inhalation anesthesia.” left out
After termination of the water maze tests at the 4th week, the SH-SP rats were anesthetized with chloral hydrate, and they were perfused and fixed transcardially with 0.1 mole phosphate buffer containing 4% paraformaldehyde. […] Areas of the left cerebral hemisphere and the left cerebrocortical infarct lesions were measured on the photographs by using an image analysis device. […]

[3] = test system: cerebrocortical neurons from rats at embryonic age 17; assay: Peroxidation of neuronal membrane lipids by ferrous sulfate and ascorbic acid (TBA); type: cell-based, rat; details: 48 hours pretreatment
Description: Then the medium was changed to a fresh medium containing ferrous sulfate and ascorbic acid but not containing ginsenoside Rb1 and the neuronal culture was maintained for 2 hours to generate hydroxyl radicals for giving an oxidative injury to neuronal membrane. The generated neuronal membrane lipid peroxide was determined by photometrically measuring a fixed amount of thiobarbituric acid (TBA) after solubilizing the cells with sodium dodecyl sulfate.
Then the medium was changed to a fresh medium containing ferrous sulfate and ascorbic acid but no ginsenoside Rb1, and the neuronal culture was maintained for 2 hours to generate hydroxyl radicals for giving oxidative injury to neuronal membrane. The generated neuronal membrane lipid peroxide was photometrically determined by measuring the fixed amount of thiobarbituric acid (TBA) after solubilizing the cells with sodium dodecyl sulfate.

Bcl-xL mRNA = Bcl-xL mRNA expression in cultured nerve cells (RT-PCR); type: cell-based, rat; details: 1 fg/ml or 100 fg/ml, 24 hours; compared with control (0 fg/ml)
Description: It was investigated whether ginsenoside Rb1 of the present invention can increase the expression of Bcl-xL gene or not. Experimental techniques followed those by Wen et al. (Wen T. -C., et al., J. Exp. Med., 188, 635-649, 1998). Total RNA was extracted from cultured nerve cells treated for 24 hours with ginsenoside Rb1 at the concentrations of 0 fg/ml, 1 fg/ml and 100 fg/ml. cDNA was prepared from DNase-treated total RNA (3 μg) by using oligo dT primer and reverse transcriptase (Moloney murine leukemia virus reverse transcriptase). Gene amplification reaction (polymerase chain reaction, PCR) was performed by using Taq polymerase under the following conditions: (1) 94° C., 2 minutes; (2) 94° C., 1.5 minute; 55° C., 1.5 minute; 72° C., 2 minutes constructed one cycle, and 25 cycles for Bcl-xL and 20 cycles for β-actin were performed; and (3) 72° C., 2 minutes.
PCR products were electrophoresed on 3% agarose gel and visualized by ethidium bromide staining. The expression of β-actin mRNA was used as an internal standard. […]

[4] = test system: gerbils loaded with 3 minute forebrain ischemia; assay: TUNEL staining of hippocampal CA1 field after 3 minute forebrain ischemia, intracerebroventricular administration; type: in vivo, gerbil; details: i.c.v. 2.5 or 25 ng single, then 60 or 600 ng/day for 1 week; 1 week after ischemia
Description: In order to analyze a suppressive effect of ginsenoside Rb1 on intracerebral apoptosis-like neuron death, the present inventors examined whether actually occurring pathological apoptosis-like neuron death in the mature brain can be reduced by administration of ginsenoside Rb1 or not. The three minute forebrain ischemia model of gerbils was used as model animal. It was reported that at one week after 3 minute ischemia, about one half of hippocampal CA1 pyramidal neurons degenerated (Sakanaka M., et al., Proc. Natl. Acad. Sci. USA, 95, 4635-4640, 1998). […] With this model animal, it was examined with TUNEL staining whether apoptosis-like neuron death on the 7th day after 3 minute ischemia could be suppressed by intracerebroventricular administration of ginsenoside Rb1 or not.
Immediately after 3 minute forebrain ischemia in gerbils under inhalation anesthesia, a single intracerebroventricular administration of ginsenoside Rb1 at the dose of 2.5 ng or 25 ng was performed, and subsequently ginsenoside Rb1 (60 ng/day or 600 ng/day) was continuously infused into the cerebral ventricles through an osmotic minipump for 1 week. At one week after 3 minute forebrain ischemia, the gerbils were perfused and fixed transcardially with phosphate buffer containing 4% paraformaldehyde under pentobarbital anesthesia and the brain was dissected out. […]

[5] = test system: cerebrocortical nerve cells (neurons) from rats at embryonic age 17
Description: After maintaining cerebrocortical nerve cells (neurons) from rats at embryonic age 17 in a serum-free culture medium for 4 or 5 days, the medium was replaced with a fresh medium containing or not containing ginsenoside Rb1 and the neurons were incubated for 24 hours. Then, SNP at the concentration of 100 μM was added to the medium for 10 minutes, and the nerve cells (neurons) were maintained in a medium containing ginsenoside Rb1 for 16 hours. Survival rate of the nerve cells was measured by using a redox indicator, alamar blue.
In the present experiments, ginsenoside Rb1 was added before and after SNP loading or only after SNP loading, and its effects were measured.
After maintaining cerebrocortical nerve cells (neurons) from rats at embryonic age 17 in a serum-free culture medium for 4 or 5 days, the medium was replaced with a fresh medium containing ginsenoside Rb1 at the concentrations of 1 fg/ml, 100 fg/ml and 100 pg/ml or no ginsenoside Rb1 (0 fg/ml), and the neurons were incubated for 24 hours. Thereafter a nitric oxide (NO) donor, sodium nitroprusside (SNP) at a concentration of 100 μM, was added to the medium for 10 minutes. Then the nerve cells (neurons) were maintained in a medium containing ginsenoside Rb1 for 16 hours. Survival rate of the nerve cells was measured by using a redox indicator, alamar blue.
Data are represented as a mean±SE. […]

[6] = in vivo
[7] = test system: transient forebrain ischemia model of gerbils; details: cited from earlier work
[8] = test system: gerbils with occlusion of the common carotid arteries; details: i.c.v. infusion starting immediately after 3 or 3.5 minute occlusion; cited from earlier work
[9] = test system: SH-SP rats with permanent occlusion of the MCA; details: cited from earlier work
cultured nerve cells = details: cited from earlier work
neuronal cells = details: 0.11-11 μg/ml; cited from earlier work
nerve cells [10] = details: approximately 500 μM (550 μg/ml); cited from earlier work
brain = details: intraperitoneal administration; cited from earlier work
nerve cells [11] = details: cited from earlier work
[12] = intracerebroventricular administration; cited from earlier work
[13] = in vivo; cited from earlier work
[14] = i.c.v. infusion starting immediately after permanent MCA occlusion

## CC(C)=CCC[C@](C)(O[C@@H]1O[C@H](CO[C@@H]2O[C@H](CO)[C@@H](O)[C@H](O)[C@H]2O)[C@@H](O)[C@H](O)[C@H]1O)[C@H]1CC[C@]2(C)[C@@H]1[C@H](O)C[C@@H]1[C@@]3(C)CC[C@H](O[C@@H]4O[C@H](CO)[C@@H](O)[C@H](O)[C@H]4O[C@@H]4O[C@H](CO)[C@@H](O)[C@H](O)[C@H]4O)C(C)(C)[C@@H]3CC[C@]12C [ginsenoside Rb1]
[1]; i.v. 6 μg/day, 3rd and 4th day at the 2nd and 4th week after MCA occlusion
  learning disability in water maze tests, low dose: significantly ameliorated
[1]; i.v. 60 μg/day, 4th day at the 2nd week, 3rd and 4th days at the 4th week after MCA occlusion
  learning disability in water maze tests, high dose: significantly ameliorated
[1]; intravenous infusion 6 or 60 μg/day for 28 days, compared with cerebral infarction group given physiological saline
  place navigation disability after MCA permanent occlusion (water maze): significantly improved
[2]; i.v. 6 or 60 μg/day for 28 days, compared with physiological saline group
  ratio of cerebrocortical infarction: significantly reduced
[2]; i.v. administration, worked out from area ratio
  actual volume of infarction reduced to (fraction of control): about ¼
[2]; i.v. ginsenoside Rb1 groups, reduced to
  mean ratio of cerebrocortical infarction compared with physiological saline group: ≤ 50%
[3]; 0.1-10 fg/ml
  preventive effect on lipid peroxidation: no preventive effects
[3]; 100 fg/ml
  preventive effect on peroxidation of nerve cell membrane lipid: slightly confirmed
Bcl-xL mRNA
  expression of Bcl-xL mRNA: increased
[4]
  TUNEL-positive nerve cells in hippocampal CA1 field: significantly reduced in a dose-dependent manner
[5]; 1-100 fg/ml, added before and after SNP (100 μM, 10 minutes) or only after SNP
  apoptosis of nerve cells after SNP treatment: significantly suppressed
[5]; SNP-treated cultured neurons
  concentrations in extracellular fluid that suppress apoptosis of nerve cells: 1 to 100 fg/mL
[6]
  adverse effect on administered animals: No adverse effect
[7]; i.p. 10 or 20 mg/kg once a day for one week in advance
  delayed neuronal death and learning disability caused by 5 minute occlusion: significantly prevent
[7]; i.p. 10 or 20 mg/kg/day before ischemic loading
  hippocampal CA1 pyramidal neurons rescued: about 30%
[7]; i.p. immediately after 3- or 5-minute occlusion of the common carotid arteries
  effect of intraperitoneal administration after ischemia: no effect
[8]
  delayed neuronal death and learning disability: suppresses
[9]; continuous i.c.v. infusion 0.6 μg/day after MCA occlusion
  suppressive effect on cerebral infarction: significant suppressive effect
[9]; continuous i.c.v. infusion 6 μg/day or 0.06 μg/day after MCA occlusion
  curative effect on cerebral infarction: no curative effect
[9]; [14]
  infarcted area in the cerebral cortex: significant reduction
  ischemia-induced place navigation disability: ameliorated
Cultured nerve cells; 0.1-100 fg/ml
  neurotoxicity of free radicals: reduce the neurotoxicity
Cultured nerve cells; 1-100 fg/ml previously admixed in culture medium
  neuronal necrosis caused by ferrous sulfate: reduces neuronal necrosis
Neuronal cells
  glutamate-mediated neurotoxicity: reduce glutamate-mediated neurotoxicity
Nerve cells [10]
  apoptosis-like nerve cell death: has a possibility to prevent
brain
  action on the brain: tranquilizing action
Nerve cells [11]
  neurotoxicity at high concentrations: increased neurotoxicity
[12]
  brain temperature, cerebral blood flow and blood pressure: no effects
[13]
  detection in blood after oral administration: can not be detected
